The test system of assay [1] is hepatocyte cell line (HepG2). Description: In vitro assay of gene expression in hepatocyte cell line. The class given is cell-based, human. To be noted: HepG2, 24 h; Histidine 10 mM, carnosine 5 mM, cysteine 5 mM, serine 5 mM; vs. control. The procedure:
These concentrations were conserved with the different combinations. Data are expressed as mean±SEM; n=3-4 per condition. *p<0.05; **p<0.01, ***p<0.001 vs. vehicle.
An in vitro assay was also carried out using the hepatocyte cell line (HepG2) to test the effect of different combinations of the supplemented amino acids in hepatic expression of key genes of fatty acid beta-oxidation (carnitine palmitoyltransferase, Cpt1a), inflammation (chemokine (C-C motif) ligand 2, CCL2), lipolysis (hormone-sensitive, HSL; and lipin, LPIN) and lipogenesis (fatty acid synthase, FASN). Gene expression was determined by qPCR as previously indicated (see materials and methods in example 1). […] The Cpt1a enzyme is located in the outer membrane, and it is the key enzyme in the carnitine-dependent transport across the mitochondrial inner membrane. Its deficiency results in a decreased rate of fatty acid beta-oxidation.
Data are depicted in FIG. 7, wherein the level of expression (mRNA) is indicated for any of the supplemented media. […]

Assay [2] concerns mice consumed high saturated fat diet. The settings on record: Mong et al.; cited from earlier work.

With `NCCC(=O)N[C@@H](Cc1cnc[nH]1)C(=O)O` [carnosine], the “Cpt1a mRNA expression (the cited enzyme)” value in assay [1] is “trend to reduce the effect”. Further, in assay [2], the body weight result is given as “lowered”, the epididymal fat result is given as “lowered”, the hepatic cholesterol levels entry is “lowered” and the hepatic triglyceride levels result was “lowered”. In addition, in assay [2], the hyper-insulinemia result is “attenuated” and the insulin sensitivity entry is “improved”.
Regarding `N[C@@H](Cc1c[nH]cn1)C(=O)O` [histidine], in assay [2], the body weight entry is given as “lowered”, the epididymal fat result is “lowered”, the hepatic cholesterol levels entry is “lowered” and the hepatic triglyceride levels result was “lowered”. In addition, in assay [2], the hyper-insulinemia result was “attenuated” and the insulin sensitivity entry was “improved”.
